# Test results published in patent US9801922B2, “Compositions and methods of treating cancer” (UNIVERSITY OF IOWA RESEARCH FOUNDATION, priority 2011, dated 2017).
# Test system: SUM159 cells
# Assay: DHE oxidation (intracellular superoxide)
# Format: cell-based, human
# Protocol: FIG. 10: DHE oxidation of BSO,DTPP and AUR exposed SUM159 cells. Asynchronously growing cultures of SUM159 were plated and treated as described in FIG. 1. Monolayer cultures were harvested and trypsinized, washed once with PBS and labeled 40 minutes with 5 μM DHE (in 0.1% DMSO) in PBS containing 5 mM pyruvate at 37° C. Each sample was then analyzed for the Mean fluorescence Intensity (MFI) of 10,000 cells by flow cytometry. Samples were assayed in triplicate; mean±1 SD of 2 experiment containing treatment dishes per group (n=6). *p<0.001 as compared to Control.
# Estimation of intracellular superoxide levels using Dihydroethidium (DHE) oxidation: Steady-state levels of superoxide were estimated using the fluorescent dyes, dihydroethidium (DHE) purchased from Molecular Probes (Eugene, Oreg.). Cells were plated and treated for as described earlier. On day 6, the cells were trypsinized and washed with 5 mM/L pyruvate containing PBS once then labeled with DHE ([…], in 0.1% DMSO, 40 min) at 37° C. After labeling, cells were kept on ice. Samples were analyzed using a FACScan flowcytometer (Becton Dickinson Immunocytometry System, INC., Mountain View, Calif.) (excitation 488 nm, emission 585 nm band-pass filter). The mean fluorescence intensity (MFI) of 10,000 cells was analyzed in each sample and corrected for autofluorescence from unlabeled cells. The MFI data was normalized to control levels.
smiles,measurement,value
"CCCCCCCCCC[P+](c1ccccc1)(c1ccccc1)c1ccccc1 [DTPP, Decyl-Triphenylphosphonium]",increase of DHE oxidation,1.5 fold
